How the values were obtained:
SR = conditions: single dose 10 μM; leukemia
NCI-H522 = conditions: single dose 10 μM; non-small lung carcinoma
UO-31 = conditions: single dose 10 μM; renal carcinoma
RPMI-8226 = conditions: single dose 10 μM; leukemia
HL-60(TB) = conditions: single dose 10 μM; leukemia
[1] = test system: NCI 60 cancer cell line panel; assay: NCI 60 full panel summary; conditions: single dose 10 μM; mean over the NCI 60 panel
HOP-62 = conditions: single dose 10 μM; non-small lung carcinoma
BT-549 = conditions: single dose 10 μM; breast carcinoma
SK-OV-3 = conditions: single dose 10 μM; ovarian carcinoma
SNB-75 = conditions: single dose 10 μM; CNS cancer
786–0 = conditions: single dose 10 μM; renal carcinoma
UACC-257 = conditions: single dose 10 μM; melanoma
SF-295 = conditions: single dose 10 μM; CNS cancer
T-47D = conditions: single dose 10 μM; breast carcinoma
MDA-MB-468 = conditions: single dose 10 μM; breast carcinoma
SF-539 = conditions: single dose 10 μM; CNS cancer
MALME-3M = conditions: single dose 10 μM; melanoma
MCF7 = conditions: single dose 10 μM; breast carcinoma
MOLT-4 = conditions: single dose 10 μM; leukemia
SNB-19 = conditions: single dose 10 μM; CNS cancer
EKVX = conditions: single dose 10 μM; non-small lung carcinoma
K-562 = conditions: single dose 10 μM; leukemia
CAKI-1 = conditions: single dose 10 μM; renal carcinoma
SN12C = conditions: single dose 10 μM; renal carcinoma
TK-10 = conditions: single dose 10 μM; renal carcinoma
LOX IMVI = conditions: single dose 10 μM; melanoma
PC-3 = conditions: single dose 10 μM; prostate carcinoma
ACHN = conditions: single dose 10 μM; renal carcinoma
CCRF-CEM = conditions: single dose 10 μM; leukemia
NCI-H226 = conditions: single dose 10 μM; non-small lung carcinoma
HOP-92 = conditions: single dose 10 μM; non-small lung carcinoma
UACC-62 = conditions: single dose 10 μM; melanoma
OVCAR-5 = conditions: single dose 10 μM; ovarian carcinoma
HCT-116 = conditions: single dose 10 μM; colon cancer
HT29 = conditions: single dose 10 μM; colon cancer
A498 = conditions: single dose 10 μM; renal carcinoma
MDA-MB-435 = conditions: single dose 10 μM; melanoma
M14 = conditions: single dose 10 μM; melanoma
U251 = conditions: single dose 10 μM; CNS cancer
SK-MEL-28 = conditions: single dose 10 μM; melanoma
KM12 = conditions: single dose 10 μM; colon cancer
A549/ATCC = conditions: single dose 10 μM; non-small lung carcinoma
HCT-15 = conditions: single dose 10 μM; colon cancer
SK-MEL-2 = conditions: single dose 10 μM; melanoma
SK-MEL-5 = conditions: single dose 10 μM; melanoma
SW-620 = conditions: single dose 10 μM; colon cancer
HCC-2998 = conditions: single dose 10 μM; colon cancer

## 1-(1H-Benzo[d]imidazol-2-yl)-3-(5-(benzofuran-2-yl)-1-phenyl-1H-pyrazol-3-yl)prop-2-en-1-one [2d]
SR
  GI%: 14.03%
NCI-H522
  GI%: 0.40%
UO-31
  GI%: 7.86%
RPMI-8226
  GI%: 0.67%
HL-60(TB)
  GI%: 8.55%
[1]
  Mean GI%: −0.94%
HOP-62
  GI%: 0.08%
BT-549
  GI%: 15.03%
SK-OV-3
  GI%: 4.37%
SNB-75
  GI%: 20.70%
786–0
  GI%: 0.74%
UACC-257
  GI%: 1.66%
SF-295
  GI%: 4.39%
T-47D
  GI%: 7.67%
MDA-MB-468
  GI%: 1.87%
SF-539
  GI%: 1.65%
MALME-3M
  GI%: 0.07%
MCF7
  GI%: 5.90%
MOLT-4
  GI%: 3.61%
SNB-19
  GI%: 4.33%
EKVX
  GI%: 2.15%
K-562
  GI%: 4.77%
CAKI-1
  GI%: 10.24%
SN12C
  GI%: 3.48%
TK-10
  GI%: 3.41%

## 3-(5-(Benzofuran-2-yl)-1-phenyl-1H-pyrazol-3-yl)-1-(4-methoxyphenyl)prop-2-en-1-one [2b]
SR
  GI%: 16.61%
NCI-H522
  GI%: 0.40%
UO-31
  GI%: 14.83%
RPMI-8226
  GI%: 10.27%
HL-60(TB)
  GI%: 10.93%
LOX IMVI
  GI%: 4.44%
[1]
  Mean GI%: 0.61%
HOP-62
  GI%: 2.25%
SK-OV-3
  GI%: 4.75%
786–0
  GI%: 1.04%
PC-3
  GI%: 4.83%
ACHN
  GI%: 0.20%
SF-295
  GI%: 7.09%
T-47D
  GI%: 83.54%
MDA-MB-468
  GI%: 65.44%
SF-539
  GI%: 3.20%
CCRF-CEM
  GI%: 19.37%
MALME-3M
  GI%: 1.29%
MCF7
  GI%: 0.75%
MOLT-4
  GI%: 7.84%
SNB-19
  GI%: 6.26%
NCI-H226
  GI%: 0.47%
HOP-92
  GI%: 18.73%
EKVX
  GI%: 5.88%
K-562
  GI%: 8.35%
UACC-62
  GI%: 7.77%
CAKI-1
  GI%: 12.51%
OVCAR-5
  GI%: 2.97%
TK-10
  GI%: 6.22%

## c1ccc(C2=NNC(c3cn(-c4ccccc4)nc3-c3cc4ccccc4o3)C2)cc1 (centres unmarked) [3a, 3-(Benzofuran-2-yl)-4-(3-phenyl-4,5-dihydro-1H-pyrazol-5-yl)-1-phenyl-1H-pyrazole]
SR
  GI%: 15.96%
NCI-H522
  GI%: 3.69%
HCT-116
  GI%: 99.83%
HT29
  GI%: 54.87%
UO-31
  GI%: 14.55%
RPMI-8226
  GI%: 2.58%
A498
  GI%: 6.22%
HL-60(TB)
  GI%: 0.73%
MDA-MB-435
  GI%: −6.37%
M14
  GI%: 0.57%
[1]
  Mean GI%: 2.24%
U251
  GI%: 2.33%
HOP-62
  GI%: 2.07%
BT-549
  GI%: 0.80%
SK-OV-3
  GI%: 8.93%
SNB-75
  GI%: −10.52%
PC-3
  GI%: 8.08%
UACC-257
  GI%: 6.06%
SK-MEL-28
  GI%: 2.00%
SF-295
  GI%: 9.51%
KM12
  GI%: 62.60%
A549/ATCC
  GI%: 3.63%
T-47D
  GI%: 10.71%
HCT-15
  GI%: 75.31%
SK-MEL-2
  GI%: −6.14%
SK-MEL-5
  GI%: 0.18%
SF-539
  GI%: 6.00%
CCRF-CEM
  GI%: 12.98%
MALME-3M
  GI%: 3.67%
MCF7
  GI%: 7.06%
MOLT-4
  GI%: 0.33%
SNB-19
  GI%: 5.98%
NCI-H226
  GI%: 8.13%
HOP-92
  GI%: 22.19%
EKVX
  GI%: 6.43%
K-562
  GI%: 6.49%
UACC-62
  GI%: 7.34%
CAKI-1
  GI%: 11.52%
OVCAR-5
  GI%: 3.74%
SN12C
  GI%: 12.27%
SW-620
  GI%: 79.60%
TK-10
  GI%: 10.65%
HCC-2998
  GI%: 66.78%

## CC(=O)N1N=C(c2ccccc2)CC1c1cn(-c2ccccc2)nc1-c1cc2ccccc2o1 (centres unmarked) [4a, 1-(5-(3-(Benzofuran-2-yl)-1-phenyl-1H-pyrazol-4-yl)-3-phenyl-4,5-dihydropyrazol-1-yl)ethanone]
SR
  GI%: 17.00%
NCI-H522
  GI%: 2.75%
HT29
  GI%: 0.65%
UO-31
  GI%: 15.50%
RPMI-8226
  GI%: 6.01%
HL-60(TB)
  GI%: 2.27%
LOX IMVI
  GI%: 4.25%
[1]
  Mean GI%: 1.66%
U251
  GI%: 1.60%
HOP-62
  GI%: 1.18%
BT-549
  GI%: 9.06%
SK-OV-3
  GI%: 9.60%
SNB-75
  GI%: 1.45%
786–0
  GI%: 2.59%
PC-3
  GI%: 8.29%
SF-295
  GI%: 5.69%
T-47D
  GI%: 12.41%
MDA-MB-468
  GI%: 3.32%
HCT-15
  GI%: 2.61%
SK-MEL-5
  GI%: 0.15%
SF-539
  GI%: 8.41%
CCRF-CEM
  GI%: 15.54%
MALME-3M
  GI%: 1.02%
MCF7
  GI%: 11.19%
MOLT-4
  GI%: 7.01%
SNB-19
  GI%: 5.00%
NCI-H226
  GI%: 0.69%
HOP-92
  GI%: 16.24%
EKVX
  GI%: 6.06%
K-562
  GI%: 6.90%
UACC-62
  GI%: 8.33%
CAKI-1
  GI%: 13.36%
OVCAR-5
  GI%: 3.55%
TK-10
  GI%: 11.62%

## COc1ccc(C2=NN(C(C)=O)C(c3cn(-c4ccccc4)nc3-c3cc4ccccc4o3)C2)cc1 (centres unmarked) [4b, 1-(5-(3-(Benzofuran-2-yl)-1-phenyl-1H-pyrazol-4-yl)-3-(4-methoxyphenyl)-4,5-dihydropyrazol-1-yl)ethanone]
SR
  GI%: 12.12%
NCI-H522
  GI%: 1.65%
UO-31
  GI%: 17.79%
RPMI-8226
  GI%: 4.36%
HL-60(TB)
  GI%: 0.51%
LOX IMVI
  GI%: 2.30%
[1]
  Mean GI%: −2.13%
HOP-62
  GI%: 2.33%
SK-OV-3
  GI%: 4.82%
PC-3
  GI%: 6.35%
T-47D
  GI%: 2.42%
MDA-MB-468
  GI%: 2.43%
HCT-15
  GI%: 0.50%
SF-539
  GI%: 2.46%
CCRF-CEM
  GI%: 10.80%
MALME-3M
  GI%: 0.92%
MCF7
  GI%: 9.85%
MOLT-4
  GI%: 7.68%
SNB-19
  GI%: 2.45%
HOP-92
  GI%: 8.59%
K-562
  GI%: 5.81%
UACC-62
  GI%: 5.56%
CAKI-1
  GI%: 13.20%
TK-10
  GI%: 7.73%

— PMC12486440, “Design, synthesis, and in silico studies of new benzofuran–pyrazole hybrids as multi-kinase inhibitors with potential antiproliferative activity” (RSC Advances, 2025)
